US7265129B2, “Anti-infective biaryl compounds” (priority 2002, dated 2007)

What was measured:
[1] = test system: S. aureus ATCC 13709; assay: MIC, NCCLS broth microdilution, S. aureus MSSA; assay type: cell-based, Staphylococcus aureus; conditions: S. aureus ATCC 13709, methicillin sensitive strain (MSSA)
In short: (§1)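 Broth microdilution per NCCLS M7-A4/M11-A4/M27-T guidelines; minimal inhibitory concentration read as endpoint. Candida tested by Manual of Clinical Microbiology method.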

[2] = test system: S. pneumoniae ATCC 49619; assay: MIC, NCCLS broth microdilution, S. pneumoniae; assay type: cell-based, Streptococcus pneumoniae
In short: as §1

[3] = MIC, Table C (organism not given); assay type: cell-based
Method: (§2) Compounds according to this invention were screened for their in vitro activities against selected species of bacteria and fungi. The minimal inhibition concentration (MIC) of these compounds was determined using the National Committee for Clinical Laboratory Standards (NCCLS) broth microdilution assay in microtiter plates, as set forth in: (1) the guidelines of the National Committee for Clinical Laboratory Standards (NCCLS) Document M7-A4 (NCCLS, 1997); (2) the guidelines of the National Committee for Clinical Laboratory Standards (NCCLS) Document M11-A4 (NCCLS, 1997); and (3) the guidelines and reference method of the National Committee for Clinical Laboratory Standards (NCCLS) Document M27-T (NCCLS, 1995). For antifungal assays, the method recommended in Murray, P R., 1995 Manual of Clinical Microbiology (ASM Press, Washington, D.C.), was employed.
(§3) Additionally, some compounds were screened against Enterococcus faccium (ATCC 51559, a vancomycin resistant strain (VRE)), Staphylococcus epidermidis (ATCC 12228), Streptococcus pneumoniae (ATCC 51422, a penicillin resistant strain (PRSP)), and/or Streptococcus pyogenes (ATCC 49399).

[4] = test system: S. epidermidis ATCC 12228; assay: MIC, S. epidermidis; assay type: cell-based, Staphylococcus epidermidis; conditions: Table C
Method: as §2, §3

[5] = test system: E. faecium ATCC 51559; assay: MIC, E. faecium VRE; assay type: cell-based, Enterococcus faccium; conditions: Table C; E. faecium ATCC 51559, vancomycin resistant strain (VRE)
Method: as §2, §3

[6] = test system: S. aureus ATCC 33591; assay: MIC, NCCLS broth microdilution, S. aureus ATCC 33591; assay type: cell-based, Staphylococcus aureus
In short: as §1

[7] = test system: C. albicans ATCC 38247; assay: MIC, antifungal assay, C. albicans; assay type: cell-based, Candida albicans
In short: as §1

[8] = test system: E. faecalis ATCC 29212; assay: MIC, NCCLS broth microdilution, E. faecalis; assay type: cell-based, Enterococcus faecalis
In short: as §1

[9] = test system: S. aureus ATCC 27660; assay: MIC, NCCLS broth microdilution, S. aureus MRSA; assay type: cell-based, Staphylococcus aureus; conditions: S. aureus ATCC 27660, methicillin resistant strain (MRSA)
In short: as §1

[10] = test system: B. cereus ATCC 11778; assay: MIC, NCCLS broth microdilution, B. cereus; assay type: cell-based, Bacillus cereus
In short: as §1

| Compound | Minimum Inhibitory Concentration (MIC), organism D [1] | Minimum Inhibitory Concentration (MIC), organism G [2] | Minimum Inhibitory Concentration (MIC), organism E [3] | Minimum Inhibitory Concentration (MIC), organism B [4] | Minimum Inhibitory Concentration (MIC), organism A [5] | Minimum Inhibitory Concentration (MIC), organism F [6] | Minimum Inhibitory Concentration (MIC), organism B [7] | Minimum Inhibitory Concentration (MIC), organism C [8] | Minimum Inhibitory Concentration (MIC), organism E [9] | Minimum Inhibitory Concentration (MIC), organism A [10] |
| --- | --- | --- | --- | --- | --- | --- | --- | --- | --- | --- |
| CN(C)CCCn1cc(NC(=O)c2ccc(Cl)cc2F)cc1C(=O)Nc1cc(-c2nc3ccncc3[nH]2)n(C)c1 [Compound A-45] | +++ (MIC ≦ 4 μg/mL) | +++ (MIC ≦ 4 μg/mL) | +++ (MIC ≦ 4 pg/mL) | +++ (MIC ≦ 4 pg/mL) | +++ (MIC ≦ 4 pg/mL) | +++ (MIC ≦ 4 μg/mL) | ++ (4 < MIC < 12 μg/mL) | +++ (MIC ≦ 4 μg/mL) | +++ (MIC ≦ 4 μg/mL) | +++ (MIC ≦ 4 μg/mL) |
| Cc1ccc2nc(-c3cc(NC(=O)c4cc(NC(=O)c5cc6ccccc6cn5)cn4C)cn3C)[nH]c2c1 [Compound A-2] | +++ (MIC ≦ 4 μg/mL) | +++ (MIC ≦ 4 μg/mL) | +++ (MIC ≦ 4 pg/mL) | +++ (MIC ≦ 4 pg/mL) | +++ (MIC ≦ 4 pg/mL) | +++ (MIC ≦ 4 μg/mL) | >32 µg/mL | +++ (MIC ≦ 4 μg/mL) | +++ (MIC ≦ 4 μg/mL) | +++ (MIC ≦ 4 μg/mL) |
| Cn1cc(NC(=O)c2cc3ccccc3cn2)cc1C(=O)Nc1cc(-c2nc3ccc(NC(=O)C(F)(F)F)cc3[nH]2)n(C)c1 [Compound A-5] | +++ (MIC ≦ 4 μg/mL) | +++ (MIC ≦ 4 μg/mL) | +++ (MIC ≦ 4 pg/mL) | +++ (MIC ≦ 4 pg/mL) | +++ (MIC ≦ 4 pg/mL) | +++ (MIC ≦ 4 μg/mL) | >32 µg/mL | +++ (MIC ≦ 4 μg/mL) | +++ (MIC ≦ 4 μg/mL) | +++ (MIC ≦ 4 μg/mL) |
| Cn1cc(NC(=O)c2cc3ccccc3cn2)cc1C(=O)Nc1cc(-c2nc3ccc(Cl)cc3[nH]2)n(C)c1 [Compound A-7] | +++ (MIC ≦ 4 μg/mL) | +++ (MIC ≦ 4 μg/mL) | +++ (MIC ≦ 4 pg/mL) | +++ (MIC ≦ 4 pg/mL) | +++ (MIC ≦ 4 pg/mL) | +++ (MIC ≦ 4 μg/mL) | >32 µg/mL | +++ (MIC ≦ 4 μg/mL) | +++ (MIC ≦ 4 μg/mL) | +++ (MIC ≦ 4 μg/mL) |
| CN(C)CCCn1cc(NC(=O)c2ccc(F)cc2F)cc1C(=O)Nc1cc(-c2nc3ccccc3[nH]2)n(C)c1 [Compound A-16] | +++ (MIC ≦ 4 μg/mL) | +++ (MIC ≦ 4 μg/mL) | +++ (MIC ≦ 4 pg/mL) | +++ (MIC ≦ 4 pg/mL) | +++ (MIC ≦ 4 pg/mL) | +++ (MIC ≦ 4 μg/mL) | + (12 ≦ MIC ≦ 32 μg/mL) | +++ (MIC ≦ 4 μg/mL) | +++ (MIC ≦ 4 μg/mL) | +++ (MIC ≦ 4 μg/mL) |
| Cn1cc(NC(=O)c2cc(NC(=O)c3sccc3Cl)cn2CCCN2CCC(F)(F)CC2)cc1-c1nc2ccccc2[nH]1 [Compound A-54] | +++ (MIC ≦ 4 μg/mL) | +++ (MIC ≦ 4 μg/mL) | +++ (MIC ≦ 4 pg/mL) | +++ (MIC ≦ 4 pg/mL) | +++ (MIC ≦ 4 pg/mL) | +++ (MIC ≦ 4 μg/mL) | >32 µg/mL | +++ (MIC ≦ 4 μg/mL) | +++ (MIC ≦ 4 μg/mL) | +++ (MIC ≦ 4 μg/mL) |
| COc1ccc2nc(-c3cc(NC(=O)c4cc(NC(=O)c5cc6ccccc6cn5)cn4C)cn3C)[nH]c2c1 [Compound A-4] | +++ (MIC ≦ 4 μg/mL) | +++ (MIC ≦ 4 μg/mL) | +++ (MIC ≦ 4 pg/mL) | +++ (MIC ≦ 4 pg/mL) | +++ (MIC ≦ 4 pg/mL) | +++ (MIC ≦ 4 μg/mL) | >32 µg/mL | +++ (MIC ≦ 4 μg/mL) | +++ (MIC ≦ 4 μg/mL) | +++ (MIC ≦ 4 μg/mL) |
| CN(C)CCCn1cc(NC(=O)c2cc3ccccc3cn2)cc1C(=O)Nc1cc(-c2nc3ccccc3[nH]2)n(C)c1 [Compound A-1] | +++ (MIC ≦ 4 μg/mL) | +++ (MIC ≦ 4 μg/mL) | +++ (MIC ≦ 4 pg/mL) | +++ (MIC ≦ 4 pg/mL) | +++ (MIC ≦ 4 pg/mL) | +++ (MIC ≦ 4 μg/mL) | +++ (MIC ≦ 4 μg/mL) | +++ (MIC ≦ 4 μg/mL) | +++ (MIC ≦ 4 μg/mL) | +++ (MIC ≦ 4 μg/mL) |
| Cn1cc(NC(=O)c2cc(NC(=O)c3sccc3Cl)cn2CCCO)cc1-c1nc2ccccc2[nH]1 [Compound A-48] | +++ (MIC ≦ 4 μg/mL) | +++ (MIC ≦ 4 μg/mL) | +++ (MIC ≦ 4 pg/mL) | +++ (MIC ≦ 4 pg/mL) | +++ (MIC ≦ 4 pg/mL) | +++ (MIC ≦ 4 μg/mL) | >32 µg/mL | +++ (MIC ≦ 4 μg/mL) | +++ (MIC ≦ 4 μg/mL) | +++ (MIC ≦ 4 μg/mL) |
| Cn1cc(NC(=O)c2cc(NC(=O)c3sccc3Cl)cn2CCCN2CCOCC2)cc1-c1nc2ccccc2[nH]1 [Compound A-50] | +++ (MIC ≦ 4 μg/mL) | +++ (MIC ≦ 4 μg/mL) | +++ (MIC ≦ 4 pg/mL) | +++ (MIC ≦ 4 pg/mL) | +++ (MIC ≦ 4 pg/mL) | +++ (MIC ≦ 4 μg/mL) | >32 µg/mL | +++ (MIC ≦ 4 μg/mL) | +++ (MIC ≦ 4 μg/mL) | +++ (MIC ≦ 4 μg/mL) |
